According to publication PMC6979384, “Characterization of the plant homeodomain (PHD) reader family for their histone tail interactions” (Epigenetics & Chromatin, 2020):

How the values were obtained:
Test in all cases: Histone peptide microarray
Assay type in all cases: binding, human
[1] = system: AIRE (PP); details: GST-tagged AIRE (PP); sheet Array Heatmap; each array performed twice, total n = 4
Procedure, shortened: (§1)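 Using an optimized microarray protocol, purified GST-tagged PHD fingers were incubated at 0.5 μM on 293 histone peptides with single or multiple modifications, and array signal was recorded as the average of 4 replicates.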

[2] = system: BAZ2B; details: GST-tagged BAZ2B; sheet Array Heatmap; each array performed twice, total n = 4
Procedure, shortened: as §1

[3] = system: BPTF (PB); details: GST-tagged BPTF (PB = PHD + Bromodomain); sheet Array Heatmap; each array performed twice, total n = 4
Procedure, shortened: as §1

[4] = system: CHD4 (PPCC); details: GST-tagged CHD4 (PPCC = Dual PHD + Dual Chromodomain); sheet Array Heatmap; each array performed twice, total n = 4
Procedure, shortened: as §1

[5] = system: CHD5 (PCC); details: GST-tagged CHD5 (PCC = PHD + Dual Chromodomain); sheet Array Heatmap; each array performed twice, total n = 4
Procedure, shortened: as §1

[6] = system: CHD5 (PPCC); details: GST-tagged CHD5 (PPCC = Dual PHD + Dual Chromodomain); sheet Array Heatmap; each array performed twice, total n = 4
Procedure, shortened: as §1

[7] = system: DIDO1; details: GST-tagged DIDO1; sheet Array Heatmap; each array performed twice, total n = 4
Procedure, shortened: as §1

[8] = system: DPF2 (PPC2W2); details: GST-tagged DPF2 (PPC2W2 = Dual PHD + C2W2-type Zn-finger); sheet Array Heatmap; each array performed twice, total n = 4
Procedure, shortened: as §1

[9] = system: ING1; details: GST-tagged ING1; sheet Array Heatmap; each array performed twice, total n = 4
Procedure, shortened: as §1

[10] = system: ING2; details: GST-tagged ING2; sheet Array Heatmap; each array performed twice, total n = 4
Procedure, shortened: as §1

[11] = system: ING3; details: GST-tagged ING3; sheet Array Heatmap; each array performed twice, total n = 4
Procedure, shortened: as §1

[12] = system: ING4; details: GST-tagged ING4; sheet Array Heatmap; each array performed twice, total n = 4
Procedure, shortened: as §1

[13] = system: ING5; details: GST-tagged ING5; sheet Array Heatmap; each array performed twice, total n = 4
Procedure, shortened: as §1

[14] = system: KDM4C (TTP); details: GST-tagged KDM4C (TTP = Tandem Tudor domain + PHD); sheet Array Heatmap; each array performed twice, total n = 4
Procedure, shortened: as §1

[15] = system: KDM5A (1); details: GST-tagged KDM5A (1); sheet Array Heatmap; each array performed twice, total n = 4
Procedure, shortened: as §1

[16] = system: KDM5A (3); details: GST-tagged KDM5A (3); sheet Array Heatmap; each array performed twice, total n = 4
Procedure, shortened: as §1

[17] = system: KDM5B (1); details: GST-tagged KDM5B (1); sheet Array Heatmap; each array performed twice, total n = 4
Procedure, shortened: as §1

[18] = system: KDM5B (3); details: GST-tagged KDM5B (3); sheet Array Heatmap; each array performed twice, total n = 4
Procedure, shortened: as §1

[19] = system: KDM7A; details: GST-tagged KDM7A; sheet Array Heatmap; each array performed twice, total n = 4
Procedure, shortened: as §1

[20] = system: MLL5; details: GST-tagged MLL5; sheet Array Heatmap; each array performed twice, total n = 4
Procedure, shortened: as §1

[21] = system: MORC3 (CW); details: GST-tagged MORC3 (CW = CW-type Zn-finger); sheet Array Heatmap; each array performed twice, total n = 4
Procedure, shortened: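 GST-tagged PHD finger readers were expressed, purified and applied at 0.5 μM to a microarray of 293 synthetic histone peptides carrying single or combinatorial PTMs, using an optimized protocol. Binding signals are averages with standard deviation from 4 replicates.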

[22] = system: PHF13; details: GST-tagged PHF13; sheet Array Heatmap; each array performed twice, total n = 4
Procedure, shortened: as §1

[23] = system: PHF21A; details: GST-tagged PHF21A; sheet Array Heatmap; each array performed twice, total n = 4
Procedure, shortened: as §1

[24] = system: PHF23; details: GST-tagged PHF23; sheet Array Heatmap; each array performed twice, total n = 4
Procedure, shortened: as §1

[25] = system: PHF2; details: GST-tagged PHF2; sheet Array Heatmap; each array performed twice, total n = 4
Procedure, shortened: as §1

[26] = system: PHF8; details: GST-tagged PHF8; sheet Array Heatmap; each array performed twice, total n = 4
Procedure, shortened: as §1

[27] = system: PHRF1 (RP); details: GST-tagged PHRF1 (RP); sheet Array Heatmap; each array performed twice, total n = 4
Procedure, shortened: as §1

[28] = system: RAG2; details: GST-tagged RAG2; sheet Array Heatmap; each array performed twice, total n = 4
Procedure, shortened: as §1

[29] = system: SP140L; details: GST-tagged SP140L; sheet Array Heatmap; each array performed twice, total n = 4
Procedure, shortened: as §1

[30] = system: TAF3; details: GST-tagged TAF3; sheet Array Heatmap; each array performed twice, total n = 4
Procedure, shortened: as §1

[31] = system: TRIM66 (PB); details: GST-tagged TRIM66 (PB = PHD + Bromodomain); sheet Array Heatmap; each array performed twice, total n = 4
Procedure, shortened: as §1

| Substance | Array Heatmap signal (histone peptide microarray) [1] | Array Heatmap signal (histone peptide microarray) [2] | Array Heatmap signal (histone peptide microarray) [3] | Array Heatmap signal (histone peptide microarray) [4] | Array Heatmap signal (histone peptide microarray) [5] | Array Heatmap signal (histone peptide microarray) [6] | Array Heatmap signal (histone peptide microarray) [7] | Array Heatmap signal (histone peptide microarray) [8] | Array Heatmap signal (histone peptide microarray) [9] | Array Heatmap signal (histone peptide microarray) [10] | Array Heatmap signal (histone peptide microarray) [11] | Array Heatmap signal (histone peptide microarray) [12] | Array Heatmap signal (histone peptide microarray) [13] | Array Heatmap signal (histone peptide microarray) [14] | Array Heatmap signal (histone peptide microarray) [15] | Array Heatmap signal (histone peptide microarray) [16] | Array Heatmap signal (histone peptide microarray) [17] | Array Heatmap signal (histone peptide microarray) [18] | Array Heatmap signal (histone peptide microarray) [19] | Array Heatmap signal (histone peptide microarray) [20] | also measured |
| --- | --- | --- | --- | --- | --- | --- | --- | --- | --- | --- | --- | --- | --- | --- | --- | --- | --- | --- | --- | --- | --- |
| H3K4ac + K9ac + S10p + K14ac + K18ac: H3 1-20 | 0.5295 | 0.5889 | 0.3689 | 0.5822 | 0.8446 | 0.5941 | 0.6753 | 0.6938 | 0.5313 | 0.5779 | 0.4823 | 0.4935 | 0.3888 | 0.5421 | 0.5046 | 0.4188 | 0.6478 | 0.4819 | 0.4698 | 0.555 | Array Heatmap signal (histone peptide microarray) [21]: 0.3767; Array Heatmap signal (histone peptide microarray) [22]: 0.6482; Array Heatmap signal (histone peptide microarray) [23]: 0.4919; Array Heatmap signal (histone peptide microarray) [24]: 0.5331; Array Heatmap signal (histone peptide microarray) [25]: 0.4731; Array Heatmap signal (histone peptide microarray) [26]: 0.3899; Array Heatmap signal (histone peptide microarray) [27]: 0.429; Array Heatmap signal (histone peptide microarray) [28]: 0.2541; Array Heatmap signal (histone peptide microarray) [29]: 0.3597; Array Heatmap signal (histone peptide microarray) [30]: 0.2701; Array Heatmap signal (histone peptide microarray) [31]: 0.6786 |
| H3K4ac + K9ac: H3 1-20 | 0.5254 | 0.5296 | 0.3822 | 0.558 | 0.8893 | 0.5625 | 0.6345 | 0.6975 | 0.5202 | 0.6174 | 0.4596 | 0.4565 | 0.3535 | 0.5223 | 0.4969 | 0.5679 | 0.6807 | 0.6207 | 0.4244 | 0.5339 | Array Heatmap signal (histone peptide microarray) [21]: 0.3754; Array Heatmap signal (histone peptide microarray) [22]: 0.5976; Array Heatmap signal (histone peptide microarray) [23]: 0.4614; Array Heatmap signal (histone peptide microarray) [24]: 0.5225; Array Heatmap signal (histone peptide microarray) [25]: 0.54; Array Heatmap signal (histone peptide microarray) [26]: 0.3733; Array Heatmap signal (histone peptide microarray) [27]: 0.6615; Array Heatmap signal (histone peptide microarray) [28]: 0.2758; Array Heatmap signal (histone peptide microarray) [29]: 0.3499; Array Heatmap signal (histone peptide microarray) [30]: 0.3083; Array Heatmap signal (histone peptide microarray) [31]: 0.6641 |
